Values quoted from earlier work, collected in patent US20210322558A1, “PHENYLEPHRINE RESINATE PARTICLES AND USE THEREOF IN PHARMACEUTICAL FORMULATIONS” (JOHNSON & JOHNSON CONSUMER INC., priority 2013, published 2021).

Legend:
[1] = 30 mg dose administered orally over eight hours

| metabolized to m-hydroxy-phenylglycol-sulfate, % of the dose [1] | metabolized to m-hydroxymandelic acid, % of the dose [1] | metabolized to phenylephrine-glucuronide, % of the dose [1] | metabolized to phenylephrine-sulfate, % of the dose [1] | fraction of a therapeutic dose excreted unchanged in the urine | Structure (SMILES) |
| --- | --- | --- | --- | --- | --- |
| 6% | 30% | 12% | 47% |  | CNC[C@H](O)c1cccc(O)c1.Cl [phenylephrine, (R)-1-(3-hydroxyphenyl)-2-methylaminoethanol] |
|  |  |  |  | Less than 9% | CC(=O)Nc1ccc(O)cc1 [acetaminophen] |
